These results are taken from a melting point compilation (Tetko et al.).

Usually melting point stands for the temperature of the solid-liquid transition.

For the data set the following is noted: a range is the spread between reports.
Regarding `CCCCCCCCCCCCCCCCCCCCCCCCCCCCCCCCCCCC`, the melting point was in the range of 76 to 76.5 °C. As to `CCc1c(C)cccc1C`, the melting point was -16.2 to -16 °C. For `FC(F)(F)CC(F)(F)F`, the melting point was -98 to -94.2 °C. The compound `C=CCCCCCCCCCC` yielded a melting point of -37 to -35 °C. Next, `COc1ccc(C(C)=O)cc1`: 38 to 38.5 °C; `N#CCC(N)=O`: 120 to 122 °C.

Compound `CCc1cc(C)cc(CC)c1` showed a melting point of -74.1 to -74 °C. Take `C1=CC2C=CC1C2`: the melting point is -20 to -19.1 °C. As for `Oc1c(F)cccc1F`, the melting point lay in the range of 38 to 39.5 °C. The compound `CCC1CCCCC1` displayed a melting point of -111 °C. `O=C(O)CO` showed a melting point of 77 to 80 °C. For `COCCOc1c(OC)cc(Cc2cnc(N)nc2N)cc1OC`, the melting point amounted to 154 °C. Turning to `COC(=O)CCC(=O)O`, the melting point lay in the range of 57.5 to 58 °C.

For the compound `CC(=O)Nc1ccc(C)cc1`, the melting point lay in the range of 149 to 152 °C. The compound `CCc1ccncc1` yielded a melting point of -91 to -90.5 °C.

`CC(C)(C)C#N`: the melting point fell in the range of 15 to 17 °C.

For the compound `O=[N+]([O-])c1cccc(Cl)c1`, the melting point was 43 to 46 °C. Next, `Fc1cc(F)c(F)c(F)c1F`: -48 to -47.3 °C. Next, `Nc1cc(Cl)cc(Cl)c1`: 51 to 53 °C; `Cc1cc(C)c(C)c(O)c1`: 93.5 to 94 °C. Regarding `CCC1CCCC1`, the melting point was -138 °C.

Compound `CC(=O)c1cc(C)c(C)cc1C` showed a melting point of 10 to 10.5 °C. Compound `Clc1ncccn1` gave a melting point of 66 to 67 °C. In turn, `Nc1cccc(Oc2ccccc2)c1` returned a melting point of 36 to 37 °C.

`CC(=O)c1cccnc1` gave a melting point of 12 to 13.5 °C.

In the case of `Cc1ccccc1O`, the melting point fell in the range of 29.8 to 33 °C. With `CCCCCCCCCCCCCCCCCCCCCCC`, the melting point is 47.6 to 49 °C.

The compound `COc1cc(Cl)cc(OC)c1` displayed a melting point of 34 to 35 °C. For `O=C(O)c1cccc(Cl)c1`, the melting point was 156 to 158 °C. `CC(C)(c1ccccc1)c1ccc(O)cc1`: the melting point is 70 to 75 °C.

As for `Cc1cccc(-c2cccc(C)c2)c1`, the melting point is 7 to 9 °C.

The compound `C(#Cc1ccccc1)c1ccccc1` returned a melting point of 60 to 63 °C. As to `CC(C)c1ncc([N+](=O)[O-])n1C`, the melting point was 60 to 61 °C. Regarding `ClCCOCCCl`, the melting point is -51.9 to -47 °C. As to `CCc1ccc(C)cc1`, the melting point is -62.3 to -62 °C. Regarding `OC(CCN1CCCCC1)(c1ccccc1)C1CCCCC1` (configuration not stated), the melting point fell in the range of 114 to 115 °C.

For `c1ccc2sccc2c1`, the melting point is 30 to 32 °C.

Take `Cc1cncc(C)c1`: the melting point is -9 to -6.6 °C. On to `C1CCc2nnnn2CC1`, for which the melting point lay in the range of 57.5 to 60 °C.

With `O=[N+]([O-])c1cccc([N+](=O)[O-])c1Cl`, the melting point lay in the range of 86 to 88 °C. Next, `N#CCCC(Br)(C#N)CBr` (configuration not stated): 50 to 52 °C; `FC(C(F)(F)F)C(F)(F)F`: -131 to -127 °C; `CCCCCCC(C)=O`: -21 to -16 °C. For `CC/C=C/C(C)C` the value was -142 °C; for `C=CCCCCCCCCCCCCCCCC`, 16 to 18 °C. For `ICI` the value was 5 to 6.1 °C; for `C=Cc1ccccc1Cl`, -63.1 to -63 °C.

On to `Clc1sc(Cl)c(Cl)c1Cl`, for which the melting point lay within 28 to 30.5 °C.

For `CCc1cc(C)cc(C)c1`, the melting point is -84.3 to -84 °C.

Compound `Cc1cc(C2(c3cc(C)c(O)c(Br)c3)OS(=O)(=O)c3ccccc32)cc(Br)c1O` had a melting point of 241 to 242 °C.

Regarding `NC(=O)c1c(Cl)cccc1Cl`, the melting point lay within 198 to 199 °C. For `COc1cccc(OC)c1C`, the melting point lay in the range of 39 to 40 °C. The compound `O=[N+]([O-])c1cccc2ccccc12` had a melting point of 57 to 62 °C.

`CCC(C)(C)C` came in with a melting point of -100 to -99 °C. For `CCCCCCCCCCCCCCCCCCCCCCCCCCCCCCCC` the value was 69.7 to 70 °C; for `N#Cc1cccc(C=O)c1`, 76.5 to 77 °C. `C#CC(C)(C)C` gave a melting point of -78.2 to -78 °C. Take `Oc1ccccc1C(F)(F)F`: the melting point fell in the range of 45.5 to 46 °C.

`Clc1ccc(Cl)nc1`: the melting point fell in the range of 60.5 to 61 °C. As to `O=C(O)c1cccc(Br)c1`, the melting point is 155 to 157 °C. In the case of `Oc1ccc(Cl)cc1Cl`, the melting point lay within 42 to 45 °C. Next, `CCC(C(C)C)C(C)C`: -122 °C. Next, `C=CCCCCCCCCCO`: -3 to -2 °C; `S=C=Nc1ccc(Br)cc1`: 58 to 60.5 °C.

As to `CC1CC(C)C(C)C1` (configuration not stated), the melting point was -133 to -131 °C. As for `O=[N+]([O-])c1cccc2cnccc12`, the melting point was in the range of 108 to 110 °C. Next, `O=Cc1c(Cl)cccc1Cl`: 70.5 to 71.5 °C; `CCCNC(=O)NS(=O)(=O)c1ccc(Cl)cc1`: 128 °C; `O=Cc1cccc(I)c1`: 56 to 58 °C. With `C=CCOc1nc(OCC=C)nc(OCC=C)n1`, the melting point is 26 to 27 °C. In turn, `CC(=O)c1cccc(Br)c1` came in with a melting point of 7.5 to 8 °C.

Consider `CCNC(=O)NCC`, for which the melting point was in the range of 110 to 112 °C. For `Nc1cccc(C(=O)O)c1` the value was 173 to 175 °C; for `CCCCCCCCCCCCCCCCCCCCCC`, 42 to 45 °C; for `CCCCCCCCCCCCCC(N)=O`, 104 to 106 °C. Next, `O=c1ccc2ccccc2o1`: 70 to 71 °C.

As for `BrCC(Br)Br`, the melting point is -29.3 to -29 °C. In turn, `C=CCC(C(=O)O)C(=O)O` had a melting point of 104 to 105 °C. Next, `CCCCCC(=O)OCCC`: -69 to -68.7 °C; `O=C(Cc1ccccc1)c1ccccc1`: 55 to 60 °C. In the case of `O=C(Oc1ccc([N+](=O)[O-])cc1)c1ccccc1`, the melting point lay within 139 to 143 °C.

As for `C#CCCO`, the melting point was -63.6 to -63 °C. `NC=O` gave a melting point of 2 to 2.55 °C.

Compound `c1ccc(-c2ccc(-c3ccccc3)cc2)cc1` returned a melting point of 210 to 214 °C. For `O=C(O)Cc1ccc(F)cc1` the value was 83 to 86 °C; for `Fc1ccc(Cl)cc1`, -26.8 to -22 °C; for `O=C(O)c1ccnc2ccccc12`, 254 °C.

Compound `O=C(O)C1CC1` gave a melting point of 15.5 to 18.5 °C. Turning to `Brc1ccc(Oc2ccccc2)cc1`, the melting point lay in the range of 18 to 18.7 °C. On to `C1CCCCC1`, for which the melting point lay in the range of 6.45 to 7 °C. Next, `CCSCC`: -104 °C; `O=S(=O)(c1ccccc1)c1ccccc1`: 128 °C; `O=C(O)c1cc([N+](=O)[O-])cc([N+](=O)[O-])c1O`: 170 to 171 °C. Turning to `CC(C)(C)c1ccc(Br)cc1`, the melting point is 16 to 19 °C. In turn, `CCCC(C)(C)C` returned a melting point of -124 °C.

With `O=C1c2ccccc2Cc2ccccc21`, the melting point is 155 to 157 °C.

As to `N#CCc1ccccc1C(F)(F)F`, the melting point lay within 30 to 33 °C. For `C=CC(C)(C)CC` the value was -134 °C. Next, `O=C1OC(=O)c2ccccc21`: 131 to 132 °C. On to `O=S=O`, for which the melting point was -73 to -72 °C. `CCCCCCCCCCCC`: the melting point was -10 to -9.6 °C. `COCC(=O)O`: the melting point fell in the range of 7.7 to 8 °C.
